# Reference: patent US7807368B2, “Cyclin-dependent kinase inhibitors as targets for opiod growth factor treatment” (priority 2006, dated 2010)
# Legend:
# Assay type in all cases: cell-based, human
# BxPC-3 cells = assay: Flow cytometry cell cycle distribution, synchronized BxPC-3 cells; settings: 10^-6 M OGF, 21 hours
# Experimental: For flow cytometry, cells were synchronized with 67 ng/ml nocodazole (Sigma-Aldrich) for 24 hours, followed by three washes with complete media. Cells were released from growth arrest by addition of complete media or OGF supplemented complete media. Synchronized cells were treated with 10^-6 M OGF for 21 hours, harvested with 0.25% trypsin-EDTA (Mediatech, Herndon, Va.) and fixed with 70% ethanol at −20° C. for up to 7 days before DNA analysis.
# DNA content was obtained by incubating cells in PBS containing propidium iodide (0.1 mg/ml) and RNase A (0.02 mg/ml) for 15 minutes at 220 C. Fluorescence was measured and analyzed using a BD Biosciences FACScan flow cytometer (San Diego, Calif.) and Modfit Software (Topsham, Me.).
# p16 = assay: Western blot of p16 in CAL-27 cells; settings: synchronized CAL-27 cells, 9 h
# Experimental: The SCC-1 (UM-SCC-1) cell line was obtained from the University of Michigan Cancer Research Laboratory, and CAL-27 and SCC-4 cells were obtained from the American Type Culture Collection (Manassas, Va.). SCC-1 and CAL-27 cells were cultured in DMEM media, whereas SCC-4 cells were grown in 1:1 Hams F-12 DMEM media. All media was supplemented with 10% fetal bovine serum (HyClone, Logan, Utah), 1.2% sodium bicarbonate, and 5000 units/ml penicillin, 5 μg/ml streptomycin and 10 μg/ml neomycin. OGF was purchased from Sigma-Aldrich (St. Louis, Mo.), dissolved in sterile water, and used at a final concentration of 10^−6 M.
# Synchronized cells (˜2×10^6) from each treatment were solubilized in 200 μl RIPA buffer (1×PBS, 10 μM IGEPAL, 1 mg/ml SDS, 5 mg/ml deoxycholic acid), containing protease and phosphatase inhibitors (2 μg/ml aprotinin, 3 mg/ml phenylmethyl sulfonyl fluoride (PMSF), 1 mM sodium orthovanidate, 1 μM okadaic acid). Total protein concentrations were measured using the DC protein assay kit (Bio-Rad Laboratories, Hercules, Calif.). Equal amounts of protein (40 μg) were subjected to 10% SDS-PAGE followed by transfer of proteins onto polyvinylidene difluoride (Millipore, Billerica, Mass.) using standard protocols. […]
# SCC-1 cells = assay: Flow cytometry cell cycle distribution, synchronized SCC-1 cells; settings: 10^-6 M OGF, 14 h
# Experimental: For flow cytometry, cells were synchronized with 0.5 μg/ml nocodazole (Sigma-Aldrich) for 24 h, followed by three washes with complete media. Cells were released from growth arrest by addition of complete media or OGF-supplemented media. Synchronized cells were treated with 10^−6 M OGF for 14 h, harvested with 0.25% trypsin-EDTA (Mediatech, Herndon, Va.) and fixed with 70% ethanol at −20° C. for up to 7 days before DNA analysis. DNA content was obtained by incubating cells in PBS containing propidium iodide (0.1 mg/ml) and RNase A (0.02 mg/ml) for 15 min at 22° C. Fluorescence was measured and analyzed using a BD Biosciences FACScan flow cytometer (San Diego, Calif.) and Modfit Software (Topsham, Me.).
# PANC-1 cells = assay: Growth curves of PANC-1 cells transfected with p21 siRNA or negative control siRNA; settings: for decrease of growth: PANC-1 cells transfected with negative control siRNAs
# Experimental: Human pancreatic cancer cell lines BxPC-3, PANC-1, and Capan-2 were obtained from the American Type Culture Collection (Manassas, Va.), and cultured in RPMI, Dulbecco's Modified Medium, or McCoy's 5A medium, respectively. All media were supplemented with 10% fetal bovine serum, 1.2% sodium bicarbonate, and 0.25% antibiotics (5000 units/ml penicillin, 5 μg/ml streptomycin and 10 μg/ml neomycin). OGF was purchased from Sigma-Aldrich (St. Louis, Mo.), dissolved in sterile water, and used at a final concentration of 10^−6 M.
# The p21-targeted siRNAs were obtained from Santa Cruz Biotechnology, and negative control siRNAs were purchased from Ambion (Ambion, Inc., Austin, Tex.). For transfection, 2×10^5 cells per well were seeded in 6-well plates containing 1 ml of media without antibiotics. For each well, 1 μl of siRNA stock (20 μM) was mixed with 175 μl of serum-free media. Two μl of Oligofectamine reagent (Invitrogen, Carlsbad, Calif.) was added to prewashed cells in each well, making the final concentration for siRNA approximately 20 nM. Cells were incubated for 4 hours at 37° C. prior to the addition of OGF. Eighteen hours later, 1 ml fresh complete media with or without OGF was added to the cultures; media and OGF were replaced daily. At the indicated time points, cells were collected for growth curves or Western blotting.
substance,measurement,setting,value
[Met^5]-enkephalin [OGF],cells in S phase,BxPC-3 cells,28.0%
same,cells in the G2/M phase,BxPC-3 cells,2.9%
same,percentage of cells in the G0/G1 phase,BxPC-3 cells,69.1%
same,p16 expression relative to controls,p16,increased p16 expression
same,cells in the G2/M phase,SCC-1 cells,22.7%
same,cells in the S phase,SCC-1 cells,42.7%
same,percentage of cells in the G0/G1 phase,SCC-1 cells,34.6%
same,decrease of growth,PANC-1 cells; 72 hours,34.1%
same,decrease of growth,PANC-1 cells; 96 hours,35.5%
same,effect on growth of cells lacking p21,PANC-1 cells; PANC-1 cells transfected with p21 siRNA,no inhibitory effect
